# Measurements taken from patent US20160278348A1, “METHOD FOR CONTROLLING WATER MOLDS IN AQUACULTURE WATER” (SUKEGAWA CHEMICALS CO., LTD., priority 2014, published 2016).
# Assays:
# [1] = test system: water molds (genus Saprolegnia); assay: Experiment 1: water mold culture on hempseed cotyledons, sensitized time 30 min; assay type: cell-based; details: 100 ppm; sensitized 30 min
# Experimental: Based on “Testing Methods for City Water (2001 edition) by Japan Water Works Association, VIII Microbial Tests, 4.4.2.2 Water Mold Culture Method”, one hempseed cotyledon with water molds and 300 mL of sterilized tap water were placed in a sterilized 500-mL conical flask, and then 5 sterilized hempseed cotyledons were placed in the conical flask and cultured at ordinary temperature. The water molds (genus Saprolegnia) were collected from a hatchery in a fish farm for salmons and trout. […] The water in fee conical flask was diluted with sterilized tap water to prepare a zoospore suspension containing 10 to 12 zoospores of the water molds per 100 μL. It is to be noted that the tap water used was city water (pH 6.0) in Kobe.
# The zoospore suspension was added to a sterilized tube (5 mL capacity) containing 3 hempseed cotyledons and stirred, and was then allowed to stand at room temperature for 3 days. After 3 days, 900 μL of a chemical solution was added to the sterilized tube, and the resulting mixture was stirred and then allowed to stand for 30 minutes for sensitization. […]
# Based on the results of the observation, the minimum killing concentration of an active ingredient contained in the chemical solution was determined. […]
# [2] = test system: water molds (genus Saprolegnia); assay: Experiment 2: water mold culture on hempseed cotyledons, sensitized time 60 min; assay type: cell-based
Molecule,Haze [1],Zoospores [1],"Haze ([2]; 100 ppm, sensitized 60 min)","Zoospores ([2]; 100 ppm, sensitized 60 min)","Haze ([2]; 1200 ppm, sensitized 60 min)","minimum killing concentration ([2]; sensitized time 60 minutes, as chlorine dioxide)"
O=[N+]([O-])C(Br)(CO)CO [bronopol],no effect,effective,no effect,effective,could not be prevented,–
sodium chlorite,–,–,–,–,–,2.5 ppm
